In general, melting point refers to the temperature, or range, at which the solid turns liquid. As usually defined, the inhibition is the percentage by which the read-out fell short of the control.

In data set [1] the target is T1, rhodesain (Trypanosoma brucei rhodesiense, UniProt Q95PM0). Nature of the data set: STD and WaterLOGSY NMR protein-ligand interaction. In kind it is binding. As to conditions: rhodesain 50 μM, compound 5 mM, 25 °C; corroborated by WaterLOGSY. The source says:
In order to support the outcome observed from docking studies, protein-ligand interactions were probed via Saturation Transfer Difference (STD) and WaterLOGSY experiments. STD is an NMR technique where the protein is selectively saturated and, if the ligand is binding to the protein in the timescale of the experiment, the saturation gets transferred to the ligand via intermolecular NOE and only then it is possible to observe an NMR signal. WaterLOGSY relies on the detection of the intermolecular NOE between water (which is selectively irradiated) and the ligand. The sign of the NOE depends on the rotational correlation time of the molecule, thus large molecules such as proteins, have an opposite NOE sign than small molecules such as the pyrimidines investigated. If the pyrimidines bind to the protein, their rotational correlation time changes and the sign of the signals in the WaterLOGSY experiment will be opposite than in the absence of a binding protein. […] The WaterLOGSY results, which as expected is generally a more sensitive technique, further corroborate our findings. […]
All NMR studies were performed at 25 °C on a JEOL ECZ-R 600 MHz spectrometer equipped with a ROYAL room temperature probe. […] The spectra were processed and analysed using JEOL Delta software. […]

For a further data set, the target named is T2, CYP2D6 (Homo sapiens, UniProt P10635).
T2 construct: purchased Corning; host or cells: baculovirus infected insect cells (BTI-TN-5B1-4)
T2 sequence (P10635 whole entry): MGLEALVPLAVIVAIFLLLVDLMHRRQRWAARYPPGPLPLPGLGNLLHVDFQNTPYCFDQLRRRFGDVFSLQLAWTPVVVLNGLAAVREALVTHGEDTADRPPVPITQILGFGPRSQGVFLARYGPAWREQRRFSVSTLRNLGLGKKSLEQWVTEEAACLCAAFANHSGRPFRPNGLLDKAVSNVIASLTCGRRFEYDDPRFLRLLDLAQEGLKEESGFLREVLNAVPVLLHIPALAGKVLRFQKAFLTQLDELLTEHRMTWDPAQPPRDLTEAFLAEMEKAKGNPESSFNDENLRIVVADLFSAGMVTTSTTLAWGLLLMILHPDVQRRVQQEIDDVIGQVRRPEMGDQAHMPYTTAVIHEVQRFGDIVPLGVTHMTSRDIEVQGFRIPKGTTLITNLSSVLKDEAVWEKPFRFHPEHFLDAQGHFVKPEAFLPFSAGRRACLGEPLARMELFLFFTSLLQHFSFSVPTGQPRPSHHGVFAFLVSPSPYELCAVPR
As to the kind of experiment: Cytochrome P450 inhibition assay (P450-Glo). Type of data set: in vitro ADME. As to conditions: 10 μM, result in words. The procedure:
(§1) Cytotoxicity was also determined against 786-O and A549 cells.
(§2) Experiments for determining pre-clinical in vitro ADME-Tox activities were performed as described by Moraes et al. and also described in the following sections 4.3.2.1 to 4.3.2.4.
(§3) The luminescence based P450-Glo™ (Promega Corp.) assay was used in 384-well assay format.
(§4) The cytochrome P450 (CYP) panel included microsomal preparations of cytochromes P450 1A2, 2C9, 2C19, 2D6, and 3A4 (Corning) from baculovirus infected insect cells (BTI-TN-5B1−4) which express cytochromes P450 and cytochrome c reductase (and cytochrome b5 for 3A4). Compounds were added (100 nL/well in 1% DMSO v/v) using the Echo 550® Liquid Handler followed by addition of 5 μL/well of CYP450/substrate mixture. Following incubation for 30 min at 37 °C, the reaction was initiated by the addition of 5 μL/well of the NADPH regeneration mixture. By the end of a further 30 min incubation (37 °C), the CYP450 reaction was stopped and the luciferase reaction was initiated by the addition of 10 μL/well of the luciferin detection reagent, followed by an additional 30 min of incubation at 37 °C. The luminescence signal was detected using an Infinite® M1000 PRO plate reader. […] The raw data were normalised relative to the positive and negative controls yielding the % inhibition for each compound.

The next data set addresses T3, CYP3A4 (Homo sapiens, UniProt P08684).
T3 construct: purchased Corning; host or cells: baculovirus infected insect cells (BTI-TN-5B1-4)
Nature of the data set: Cytochrome P450 inhibition assay (P450-Glo). In kind it is in vitro ADME. As to conditions: 10 μM, result in words. The protocol:
as §1, §2, §3, §4

A further data set deals with T4, CYP2C19 (Homo sapiens, UniProt P33261).
T4 construct: purchased Corning; host or cells: baculovirus infected insect cells (BTI-TN-5B1-4)
T4 sequence (P33261 whole entry): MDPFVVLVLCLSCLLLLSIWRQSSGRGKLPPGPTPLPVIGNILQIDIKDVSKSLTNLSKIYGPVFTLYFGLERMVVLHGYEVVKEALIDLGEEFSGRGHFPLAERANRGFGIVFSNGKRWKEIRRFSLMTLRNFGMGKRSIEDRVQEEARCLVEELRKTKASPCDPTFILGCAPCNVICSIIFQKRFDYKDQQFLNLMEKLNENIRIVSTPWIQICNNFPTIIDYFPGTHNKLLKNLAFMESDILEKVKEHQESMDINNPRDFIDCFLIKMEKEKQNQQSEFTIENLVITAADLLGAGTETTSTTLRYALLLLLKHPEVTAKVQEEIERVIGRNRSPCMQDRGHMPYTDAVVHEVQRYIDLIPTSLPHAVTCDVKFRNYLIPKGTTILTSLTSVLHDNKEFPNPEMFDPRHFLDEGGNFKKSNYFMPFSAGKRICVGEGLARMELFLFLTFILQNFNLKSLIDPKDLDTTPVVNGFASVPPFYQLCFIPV
Nature of the data set: Cytochrome P450 inhibition assay (P450-Glo). Type of data set: in vitro ADME. As to conditions: 10 μM, result in words. The protocol: as §1, §2, §3, §4

In another data set the target is T5, CYP2C9 (Homo sapiens, UniProt P11712).
T5 construct: purchased Corning; host or cells: baculovirus infected insect cells (BTI-TN-5B1-4)
T5 sequence (P11712 whole entry): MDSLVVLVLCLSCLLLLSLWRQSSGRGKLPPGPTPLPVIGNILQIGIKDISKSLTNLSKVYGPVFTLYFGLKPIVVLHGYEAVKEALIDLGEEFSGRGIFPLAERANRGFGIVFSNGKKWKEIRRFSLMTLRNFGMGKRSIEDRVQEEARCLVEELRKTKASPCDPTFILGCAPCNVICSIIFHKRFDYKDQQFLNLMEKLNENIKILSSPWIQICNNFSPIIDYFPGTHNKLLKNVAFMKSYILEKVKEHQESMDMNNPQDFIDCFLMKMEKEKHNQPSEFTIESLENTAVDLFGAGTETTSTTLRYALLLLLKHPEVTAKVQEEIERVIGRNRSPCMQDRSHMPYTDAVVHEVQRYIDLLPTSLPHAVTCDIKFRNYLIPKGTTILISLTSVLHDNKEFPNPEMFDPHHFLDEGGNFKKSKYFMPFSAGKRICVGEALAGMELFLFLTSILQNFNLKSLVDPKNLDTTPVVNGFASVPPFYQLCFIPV
As to the kind of experiment: Cytochrome P450 inhibition assay (P450-Glo). In kind it is in vitro ADME. As to conditions: 10 μM, result in words. The procedure: as §1, §2, §3, §4

A further data set has as its target T6, CYP1A2 (Homo sapiens, UniProt P05177).
T6 construct: purchased Corning; host or cells: baculovirus infected insect cells (BTI-TN-5B1-4)
T6 sequence (P05177 2-516 limits assumed): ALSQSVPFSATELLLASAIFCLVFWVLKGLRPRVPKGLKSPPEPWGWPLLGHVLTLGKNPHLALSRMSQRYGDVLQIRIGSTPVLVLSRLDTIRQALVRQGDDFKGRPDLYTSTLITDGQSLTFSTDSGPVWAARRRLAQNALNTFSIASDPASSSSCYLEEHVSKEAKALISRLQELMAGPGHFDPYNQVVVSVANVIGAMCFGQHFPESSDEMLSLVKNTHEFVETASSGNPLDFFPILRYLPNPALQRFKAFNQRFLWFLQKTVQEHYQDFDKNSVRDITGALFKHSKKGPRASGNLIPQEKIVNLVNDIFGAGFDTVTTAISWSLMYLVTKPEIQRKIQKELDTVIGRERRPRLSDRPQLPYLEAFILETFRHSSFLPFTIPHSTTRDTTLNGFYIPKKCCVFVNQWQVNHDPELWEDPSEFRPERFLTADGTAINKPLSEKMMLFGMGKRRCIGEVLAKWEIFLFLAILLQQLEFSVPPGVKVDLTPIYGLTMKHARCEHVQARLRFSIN
As to the kind of experiment: Cytochrome P450 inhibition assay (P450-Glo). As to conditions: 10 μM, result in words. Type of data set: in vitro ADME. The protocol: as §1, §2, §3, §4

Data set [2] addresses T1, rhodesain. As to the kind of experiment: In vitro rhodesain enzyme assay (Cbz-Phe-Arg-AMC substrate). As to conditions: compound at 50 μM; Cbz-Phe-Arg-AMC substrate 10, 5 and 1.25 μM; read-out: inhibition of rhodesain enzymatic activity. Type of data set: biochemical. The procedure:
Enzyme assays with rhodesain were performed as described previously [[36], [37], [38]]. The assay buffer consisted of 50 mM sodium acetate (pH 5.5), 5 mM EDTA, 200 mM NaCl and 0.005% Brij35. The enzyme buffer consisted of 50 mM sodium acetate (pH 5.5), 5 mM EDTA, 200 mM NaCl and 2 mM DTT. The substrate Cbz-Phe-Arg-AMC (Bachem, purchased as HCl salt) was diluted from a 1 mM stock solution to reach concentrations of 10, 5 and 1.25 μM. […] Inhibition against rhodesain was measured using Cbz-Phe-Arg-AMC as the substrate, which releases AMC (7-amino-4-methylcoumarin) after amide bond cleavage by the enzyme. Proteolytic activity of the enzyme was monitored spectrophotometrically by the increase of fluorescence intensity by release of AMC (emission at 460 nm) upon hydrolysis.

Molecules are shown by their SMILES.

T1 sequence (Q95PM0 entry or part of it): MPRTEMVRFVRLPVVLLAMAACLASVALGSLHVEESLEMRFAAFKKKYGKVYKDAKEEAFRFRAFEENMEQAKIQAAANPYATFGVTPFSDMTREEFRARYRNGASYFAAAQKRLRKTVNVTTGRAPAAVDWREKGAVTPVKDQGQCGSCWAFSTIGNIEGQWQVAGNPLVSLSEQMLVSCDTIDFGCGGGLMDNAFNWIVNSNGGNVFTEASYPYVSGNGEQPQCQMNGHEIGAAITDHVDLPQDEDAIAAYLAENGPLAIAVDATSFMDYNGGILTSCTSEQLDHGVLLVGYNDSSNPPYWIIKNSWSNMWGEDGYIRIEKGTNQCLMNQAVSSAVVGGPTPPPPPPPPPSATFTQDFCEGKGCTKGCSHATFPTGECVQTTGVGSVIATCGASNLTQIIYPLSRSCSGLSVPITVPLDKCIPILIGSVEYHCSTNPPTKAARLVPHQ
T3 sequence (P08684 2-503 limits assumed): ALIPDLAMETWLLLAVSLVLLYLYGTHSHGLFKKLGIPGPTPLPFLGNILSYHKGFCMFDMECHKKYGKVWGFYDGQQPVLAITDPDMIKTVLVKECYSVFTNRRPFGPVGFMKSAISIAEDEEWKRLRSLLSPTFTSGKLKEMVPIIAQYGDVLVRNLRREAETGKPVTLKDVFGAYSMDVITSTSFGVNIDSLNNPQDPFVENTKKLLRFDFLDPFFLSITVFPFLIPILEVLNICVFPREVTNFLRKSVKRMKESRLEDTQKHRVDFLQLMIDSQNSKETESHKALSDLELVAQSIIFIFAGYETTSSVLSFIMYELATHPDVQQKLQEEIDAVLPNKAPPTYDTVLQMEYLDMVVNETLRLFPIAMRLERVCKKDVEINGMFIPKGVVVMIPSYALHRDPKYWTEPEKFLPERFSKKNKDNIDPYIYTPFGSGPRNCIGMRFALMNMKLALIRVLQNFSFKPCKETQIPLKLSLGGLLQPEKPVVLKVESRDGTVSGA

Compound `COc1ccccc1-c1cc(-c2cccnc2)nc(N)n1` [Compound 13, 4-(2-Methoxyphenyl)-6-(pyridin-3-yl)pyrimidin-2-amine] yielded a melting point of 108 to 110 °C. At rhodesain [1], the “binding to rhodesain by STD NMR” value is “confirming binding to rhodesain”. Besides, the CYP2D6 inhibition result at CYP2D6 was “favourable results”. Further, the CYP3A4 inhibition entry on CYP3A4 was “favourable results”. Also, on CYP2C19, the CYP2C19 inhibition result is listed as “some inhibition”. Moreover, on CYP2C9, the CYP2C9 inhibition result is “some inhibition”. Moreover, on CYP1A2, the CYP1A2 inhibition result was “inhibitory activity”. Besides, the inhibition at 50 µM at rhodesain [2] was at most 15%.

The values above are taken from PMC7762786, “The discovery of novel antitrypanosomal 4-phenyl-6-(pyridin-3-yl)pyrimidines” (European Journal of Medicinal Chemistry, 2021).
